Source: ChEMBL document CHEMBL1201862, “PubChem BioAssay data set” (2004)
The source made the active and inactive calls.

Tests used:
[1] = target: Beta-adrenergic receptor kinase 1 (Homo sapiens, UniProt P25098); test: aptamer displacement from bead-bound GRK2 – biochemical, cherry pick 1, bead flow cytometry, dose response (AID 504500)
[2] = target: T1, Heat shock factor protein 1 (Mus musculus, UniProt P38532); test: enhancement of HSF1-driven luciferase signal – cell-based, NIH3T3, luminescence, dose retest, confirmation (AID 435004); format: functional;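 also: stress induced by proteasome inhibitor MG132 added 30 min after compound; luciferase reporter driven by HSF1 response element in NIH3T3 cells; actives raise luminescence as potentiators of the MG132 stress response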
T1 sequence (P38532 whole entry): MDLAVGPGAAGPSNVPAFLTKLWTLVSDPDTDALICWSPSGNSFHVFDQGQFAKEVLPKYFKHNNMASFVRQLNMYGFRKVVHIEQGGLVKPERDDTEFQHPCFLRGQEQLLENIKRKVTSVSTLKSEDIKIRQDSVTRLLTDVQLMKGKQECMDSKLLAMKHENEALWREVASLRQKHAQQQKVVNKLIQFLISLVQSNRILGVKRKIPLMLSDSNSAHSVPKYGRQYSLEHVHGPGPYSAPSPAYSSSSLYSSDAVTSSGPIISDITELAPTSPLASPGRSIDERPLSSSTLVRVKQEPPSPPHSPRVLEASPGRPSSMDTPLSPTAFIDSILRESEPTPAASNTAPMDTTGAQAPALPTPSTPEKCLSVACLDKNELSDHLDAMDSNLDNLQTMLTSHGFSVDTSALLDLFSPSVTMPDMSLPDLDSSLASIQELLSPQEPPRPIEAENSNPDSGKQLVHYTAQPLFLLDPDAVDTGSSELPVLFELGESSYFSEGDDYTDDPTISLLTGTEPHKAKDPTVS

[3] = target: Tyrosine-protein phosphatase non-receptor type 11 (Homo sapiens, UniProt Q06124); test: PTPN11 enzyme inhibitors – biochemical, selectivity assay for STEP inhibitor project, dose response (AID 602367); format: functional; settings: read-out: IC50_Mean
Chain of Tyrosine-protein phosphatase non-receptor type 11 (Q06124 whole entry): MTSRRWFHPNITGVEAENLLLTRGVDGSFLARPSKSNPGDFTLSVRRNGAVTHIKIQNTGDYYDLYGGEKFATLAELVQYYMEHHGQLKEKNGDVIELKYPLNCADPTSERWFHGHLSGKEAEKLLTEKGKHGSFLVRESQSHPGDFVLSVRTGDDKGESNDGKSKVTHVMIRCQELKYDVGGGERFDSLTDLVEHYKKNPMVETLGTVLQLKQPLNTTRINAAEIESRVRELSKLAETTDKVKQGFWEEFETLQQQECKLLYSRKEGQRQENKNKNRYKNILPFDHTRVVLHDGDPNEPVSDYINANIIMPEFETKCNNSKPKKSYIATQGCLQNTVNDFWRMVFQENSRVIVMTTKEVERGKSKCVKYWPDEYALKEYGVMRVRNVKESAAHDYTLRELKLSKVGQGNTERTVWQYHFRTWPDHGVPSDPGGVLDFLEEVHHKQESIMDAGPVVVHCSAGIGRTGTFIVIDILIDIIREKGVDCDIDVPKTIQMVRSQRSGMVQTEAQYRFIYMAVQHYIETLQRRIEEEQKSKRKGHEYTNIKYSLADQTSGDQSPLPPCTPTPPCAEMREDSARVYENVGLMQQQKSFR

[4] = target: Tyrosine-protein phosphatase non-receptor type 5 (Homo sapiens, UniProt P54829); test: PTPN5 enzyme inhibition – biochemical, fluorescence intensity, uHTS hits, confirmation (AID 602372); format: functional; settings: read-out: IC50_Mean
Chain of Tyrosine-protein phosphatase non-receptor type 5 (P54829 whole entry): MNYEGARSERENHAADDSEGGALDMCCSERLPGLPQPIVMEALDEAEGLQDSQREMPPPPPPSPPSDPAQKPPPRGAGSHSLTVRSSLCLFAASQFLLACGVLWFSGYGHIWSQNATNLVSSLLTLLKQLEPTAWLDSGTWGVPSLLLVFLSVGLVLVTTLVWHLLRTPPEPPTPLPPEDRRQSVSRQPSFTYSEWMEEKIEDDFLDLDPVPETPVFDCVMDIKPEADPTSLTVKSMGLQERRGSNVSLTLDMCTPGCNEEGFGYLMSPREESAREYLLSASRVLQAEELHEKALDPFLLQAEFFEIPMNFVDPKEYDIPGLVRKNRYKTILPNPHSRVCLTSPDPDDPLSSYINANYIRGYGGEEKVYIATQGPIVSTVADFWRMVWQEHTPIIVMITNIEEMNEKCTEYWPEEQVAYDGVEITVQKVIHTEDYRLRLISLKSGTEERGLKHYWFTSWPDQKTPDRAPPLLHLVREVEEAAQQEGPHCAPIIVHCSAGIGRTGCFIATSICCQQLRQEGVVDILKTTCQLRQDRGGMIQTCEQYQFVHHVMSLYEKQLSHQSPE

[5] = target: Dual specificity protein phosphatase 3 (Homo sapiens, UniProt P51452); test: VHR phosphatase inhibition, dose response, selectivity assay for STEP inhibitor project, biochemical (AID 602374); format: functional; settings: read-out: IC50_Mean
Chain of Dual specificity protein phosphatase 3 (P51452 whole entry, the tested form may be a part): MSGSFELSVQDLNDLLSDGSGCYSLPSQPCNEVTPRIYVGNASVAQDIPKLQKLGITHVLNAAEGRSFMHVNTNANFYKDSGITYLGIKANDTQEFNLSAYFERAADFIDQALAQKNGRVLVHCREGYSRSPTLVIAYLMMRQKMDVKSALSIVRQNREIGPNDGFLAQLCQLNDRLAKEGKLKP

[6] = target: T2, RNA-binding protein pos-1 (Caenorhabditis elegans, UniProt G5EF15); test: disruptors of C. elegans POS-1 RNA interaction – biochemical, fluorescence polarization, dose response (AID 1964);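 also: purified POS-1 fused to maltose binding protein made in E. coli; potency of compounds blocking POS-1 binding to fluorescent RNA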
T2 sequence (G5EF15 whole entry): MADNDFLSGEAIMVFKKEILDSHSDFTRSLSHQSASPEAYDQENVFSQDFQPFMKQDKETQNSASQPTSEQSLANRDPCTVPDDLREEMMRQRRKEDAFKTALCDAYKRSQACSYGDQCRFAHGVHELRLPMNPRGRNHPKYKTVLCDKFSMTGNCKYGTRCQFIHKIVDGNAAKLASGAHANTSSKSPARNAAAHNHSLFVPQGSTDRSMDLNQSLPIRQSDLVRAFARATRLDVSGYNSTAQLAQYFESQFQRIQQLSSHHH

[7] = target: T3, Zinc finger protein mex-5 (Caenorhabditis elegans, UniProt Q9XUB2); test: potency of MEX-5 RNA-binding blockers – biochemical, C. elegans, fluorescence polarization, dose response (AID 1960)
T3 sequence (Q9XUB2 whole entry): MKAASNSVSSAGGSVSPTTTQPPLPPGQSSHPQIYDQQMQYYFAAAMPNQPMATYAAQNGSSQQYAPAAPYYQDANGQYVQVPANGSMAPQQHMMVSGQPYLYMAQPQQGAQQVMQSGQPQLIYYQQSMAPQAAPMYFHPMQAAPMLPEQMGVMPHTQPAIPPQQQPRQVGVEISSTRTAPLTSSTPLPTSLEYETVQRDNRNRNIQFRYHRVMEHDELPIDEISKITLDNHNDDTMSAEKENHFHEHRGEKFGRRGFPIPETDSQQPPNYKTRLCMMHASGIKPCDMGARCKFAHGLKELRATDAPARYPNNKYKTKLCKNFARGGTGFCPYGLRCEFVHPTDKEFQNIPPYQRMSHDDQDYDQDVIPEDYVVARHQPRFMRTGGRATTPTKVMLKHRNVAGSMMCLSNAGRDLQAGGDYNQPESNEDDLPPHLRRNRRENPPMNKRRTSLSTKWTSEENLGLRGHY

[8] = target: T4, Endoribonuclease toxin MazF (Escherichia coli K-12, UniProt P0AE70); test: activation of MazEF endoribonuclease cleavage – biochemical, fluorescence, single-stranded RNA substrate, uHTS hits, dose response (AID 588481); format: functional
T4 sequence (P0AE70 whole entry): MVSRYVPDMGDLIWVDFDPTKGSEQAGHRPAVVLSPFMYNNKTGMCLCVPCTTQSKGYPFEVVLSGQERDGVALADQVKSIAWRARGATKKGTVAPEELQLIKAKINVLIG

[9] = target: T4, Endoribonuclease toxin MazF; test: substrate-only fluorescence increase artefacts – biochemical, single-stranded RNase substrate, counter-screen for MazEF activator project, dose response (AID 588502); format: functional
[10] = NIH-3T3 fibroblast cytotoxicity, dose response, cytotoxicity control, cell-based, fluorescence, Alamar Blue, secondary assay (AID 2327); format: functional;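 also: NIH-3T3 mouse fibroblasts cultured with fluconazole at 8 µg/mL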
[11] = system: BJ; test: BJ-TERT fibroblast viability loss – cell-based, RAS-independent, luminescence, dose response (AID 1933); format: functional; settings: Homo sapiens
[12] = cells; format: functional, cell-based
[13] = system: BJ; test: cells; format: functional, cell-based; settings: Homo sapiens
[14] = fluconazole-exposed Candida albicans growth modulators – fluorescence, retest, confirmation (AID 2467); format: functional, cell-based
[15] = cells; format: functional, cell-based; remark: listed apart in the source
[16] = target: Serine/threonine-protein phosphatase (Candida dubliniensis (strain CD36 / CBS 7987 / NCPF 3949 / NRRLY-17841) (Yeast), UniProt B9W6M3); test: blockers of CaCl2-induced CDRE-lacZ signaling – S. cerevisiae, luminescence, secondary, dose response (AID 2388); format: functional, cell-based;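 also: yeast reporter cells carrying a calcineurin-responsive lacZ construct stimulated with calcium chloride; luminescent beta-galactosidase reporter signal in whole cells rather than isolated phosphatase activity; potency for inhibition where a drop in reporter signal means calcineurin blockade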
Chain of Serine/threonine-protein phosphatase (B9W6M3 whole entry): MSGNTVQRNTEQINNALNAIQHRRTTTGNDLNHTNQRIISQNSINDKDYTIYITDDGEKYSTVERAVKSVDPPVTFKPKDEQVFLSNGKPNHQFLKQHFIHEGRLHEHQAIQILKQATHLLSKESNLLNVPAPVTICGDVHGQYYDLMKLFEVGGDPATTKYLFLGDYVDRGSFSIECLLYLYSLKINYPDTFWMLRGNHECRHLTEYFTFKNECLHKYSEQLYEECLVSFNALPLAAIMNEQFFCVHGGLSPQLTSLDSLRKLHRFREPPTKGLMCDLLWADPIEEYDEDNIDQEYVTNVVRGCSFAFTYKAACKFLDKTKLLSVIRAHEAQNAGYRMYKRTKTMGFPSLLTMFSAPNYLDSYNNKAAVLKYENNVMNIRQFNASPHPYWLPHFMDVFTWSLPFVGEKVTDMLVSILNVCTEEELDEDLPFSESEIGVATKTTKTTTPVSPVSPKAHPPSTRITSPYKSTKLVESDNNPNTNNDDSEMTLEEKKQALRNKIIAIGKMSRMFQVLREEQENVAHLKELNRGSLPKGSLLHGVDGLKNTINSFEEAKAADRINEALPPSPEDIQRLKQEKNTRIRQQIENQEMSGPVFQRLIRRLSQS

[17] = system: BJ; test: BJ-TERT-LT-ST fibroblast viability loss – cell-based, RAS-independent, luminescence, dose response (AID 1935); format: functional; settings: Homo sapiens;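 also: BJ fibroblasts immortalized with TERT plus LT and ST oncogenes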
[18] = DRD fibroblast viability loss – cell-based, non-viral oncogenic, luminescence, dose response (AID 1934); format: functional; settings: Homo sapiens
[19] = target: Exodeoxyribonuclease V (Escherichia coli (strain K12), UniProt P04993+P07648+P08394); test: RecBCD inhibition via phage-restricted bacterial growth – absorbance, V66 E. coli, mutant T4 phage, counter-screen for AddAB inhibitor project, dose response (AID 492957); format: functional, cell-based, Escherichia coli str. K-12 substr. MG1655
[20] = Counterscreen for AddAB inhibitors: absorbance-based bacterial cell-based high throughput dose response assay for inhibitors of bacterial viability. [Related pubchem assays (depositor defined):AID435030, AID449728, AID449731, AID488942, AID488955, AID488956]; format: functional
[21] = system: HEK293; test: EBV LMP1 TES2 canonical NF-kB signalling blockers – cell-based, HEK293, luciferase, cherry-pick, dose response (AID 588343); format: functional, Homo sapiens; settings: Homo sapiens, HEK293
[22] = target: T5, Latent membrane protein 1 (Human herpesvirus 4 (strain B95-8), UniProt P03230); test: LMP1 TES1 pathway selectivity over dsRED control – imaging, HEK293T, dual-color eGFP/dsRED, cherry-picks, selectivity assay for LMP1 NF-kB inhibitor project, dose response (AID 588398); format: functional, cell-based
T5 sequence (P03230 whole entry): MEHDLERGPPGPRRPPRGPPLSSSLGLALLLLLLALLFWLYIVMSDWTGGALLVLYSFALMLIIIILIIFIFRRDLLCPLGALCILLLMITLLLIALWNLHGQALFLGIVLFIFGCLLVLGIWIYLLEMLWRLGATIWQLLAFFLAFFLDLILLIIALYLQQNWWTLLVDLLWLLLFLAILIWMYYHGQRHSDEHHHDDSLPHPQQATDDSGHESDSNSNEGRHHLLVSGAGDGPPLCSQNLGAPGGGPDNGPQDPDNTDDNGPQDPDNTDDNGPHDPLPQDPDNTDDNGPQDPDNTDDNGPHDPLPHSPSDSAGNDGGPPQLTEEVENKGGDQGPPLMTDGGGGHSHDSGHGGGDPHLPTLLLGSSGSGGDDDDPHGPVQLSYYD

[23] = system: INS1; test: INS-1E survival protection against cytokine death – cell-based, luminescence, retest, dose response (AID 449756); format: functional; settings: Rattus norvegicus;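 also: cell death triggered by IL-1 beta plus TNF-alpha plus IFN-gamma mixture; protective hits raise ATP signal compared with cytokine alone wells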
[24] = target: ATP-dependent molecular chaperone HSP82 (Candida albicans (strain WO-1) (Yeast), UniProt C4YTQ8); test: steroid-induced GRE reporter decrease in yeast – S. cerevisiae, luminescence, Hsp90 inhibitor project, dose response (AID 2400); format: functional, cell-based;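 also: beta-galactosidase luminescence from glucocorticoid response element reporter as proxy for Hsp90 function; inhibitor potency where signal loss means Hsp90 inhibition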
Chain of ATP-dependent molecular chaperone HSP82 (C4YTQ8 whole entry): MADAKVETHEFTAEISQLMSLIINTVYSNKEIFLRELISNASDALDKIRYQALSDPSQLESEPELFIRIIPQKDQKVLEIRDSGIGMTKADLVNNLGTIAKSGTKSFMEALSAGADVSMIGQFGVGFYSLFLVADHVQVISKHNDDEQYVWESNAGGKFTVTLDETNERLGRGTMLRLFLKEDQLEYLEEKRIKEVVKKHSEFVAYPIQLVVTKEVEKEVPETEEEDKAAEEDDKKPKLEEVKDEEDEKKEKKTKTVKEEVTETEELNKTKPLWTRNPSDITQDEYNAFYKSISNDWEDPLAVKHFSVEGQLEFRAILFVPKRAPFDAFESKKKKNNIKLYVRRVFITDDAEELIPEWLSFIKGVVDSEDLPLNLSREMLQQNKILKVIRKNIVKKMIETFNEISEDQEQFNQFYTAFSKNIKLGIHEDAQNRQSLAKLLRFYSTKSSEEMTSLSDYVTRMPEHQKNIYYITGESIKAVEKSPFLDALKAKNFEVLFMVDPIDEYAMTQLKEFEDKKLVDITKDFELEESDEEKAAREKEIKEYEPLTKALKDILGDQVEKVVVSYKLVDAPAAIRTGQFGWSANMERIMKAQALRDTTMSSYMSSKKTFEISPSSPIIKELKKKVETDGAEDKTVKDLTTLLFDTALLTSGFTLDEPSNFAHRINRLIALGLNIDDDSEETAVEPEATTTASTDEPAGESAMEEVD

[25] = reduction of Shn3 3'UTR-driven luciferase in osteoblasts – cell-based, Clone20 osteoblasts, firefly luciferase, cherry-picked, dose response (AID 624132); format: functional;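 also: firefly luciferase luminescence from reporter carrying the Shn3 3'UTR in osteoblasts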
[26] = loss of viability in HepG2 cells – cell-based, CellTiter-Glo, cherry-picked, cytotoxicity control for Shn3 inhibitor project, dose response (AID 624134); format: functional
[27] = non-specific 3'UTR reporter inhibition in Clone20-Shn3RL – cell-based, Renilla luciferase, cherry-picked, counter-screen for Shn3 inhibitor project, dose response (AID 624133); format: functional
[28] = system: Candida albicans; test: fluconazole-resistant Candida strain growth inhibitors – CaCi-8 strain, dry powder, set 4, dose response (AID 488950); format: functional, organism-based
[29] = system: Candida albicans; test: C. albicans growth inhibition with fluconazole – CaCi-2 strain, Alamar Blue, dry powder, set 4, dose response (AID 488943); format: functional, organism-based
[30] = system: Candida albicans; test: resistant Candida growth with fluconazole co-treatment – CaCi-8 strain, Alamar Blue, dry powder, set 2, dose response (AID 488909); format: functional, organism-based
[31] = target: Hexokinase-1 (Homo sapiens, UniProt P19367); test: SAR analysis of small molecule inhibitors of hexokinase domain containing I (HKDC1) in the hexokinase 1 selectivity assay. [Related pubchem assays (depositor defined):AID493160, AID493190]; format: functional
Chain of Hexokinase-1 (P19367 whole entry, the tested form may be a part): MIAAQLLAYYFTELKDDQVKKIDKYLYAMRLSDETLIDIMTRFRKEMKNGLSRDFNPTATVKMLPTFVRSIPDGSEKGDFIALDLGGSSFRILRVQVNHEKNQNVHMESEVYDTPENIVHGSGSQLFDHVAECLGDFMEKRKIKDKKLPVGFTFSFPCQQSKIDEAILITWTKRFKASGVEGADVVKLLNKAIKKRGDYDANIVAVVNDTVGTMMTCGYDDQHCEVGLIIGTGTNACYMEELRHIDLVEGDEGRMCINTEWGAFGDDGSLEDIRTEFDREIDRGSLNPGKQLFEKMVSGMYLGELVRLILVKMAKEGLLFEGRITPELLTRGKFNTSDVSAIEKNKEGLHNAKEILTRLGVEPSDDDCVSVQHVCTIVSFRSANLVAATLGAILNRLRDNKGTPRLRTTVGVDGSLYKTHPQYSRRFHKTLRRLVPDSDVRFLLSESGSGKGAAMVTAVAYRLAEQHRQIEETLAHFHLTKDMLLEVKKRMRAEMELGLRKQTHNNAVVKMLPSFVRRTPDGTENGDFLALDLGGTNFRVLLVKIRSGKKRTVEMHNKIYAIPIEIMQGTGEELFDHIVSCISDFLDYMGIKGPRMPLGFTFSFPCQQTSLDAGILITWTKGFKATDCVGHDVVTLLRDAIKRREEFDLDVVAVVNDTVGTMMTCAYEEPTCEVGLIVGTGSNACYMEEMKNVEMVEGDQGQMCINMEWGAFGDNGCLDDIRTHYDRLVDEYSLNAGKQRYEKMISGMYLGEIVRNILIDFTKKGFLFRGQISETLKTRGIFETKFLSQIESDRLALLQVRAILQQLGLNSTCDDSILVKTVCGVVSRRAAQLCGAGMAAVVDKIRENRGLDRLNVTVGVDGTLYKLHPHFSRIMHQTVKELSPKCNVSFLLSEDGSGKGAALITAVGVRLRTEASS

[32] = target: T6, Hexokinase HKDC1 (Homo sapiens, UniProt Q2TB90); test: SAR analysis of small molecule inhibitors of hexokinase domain containing I (HKDC1). [Related pubchem assays (depositor defined):AID493160, AID493190]; format: functional
T6 sequence (Q2TB90 whole entry): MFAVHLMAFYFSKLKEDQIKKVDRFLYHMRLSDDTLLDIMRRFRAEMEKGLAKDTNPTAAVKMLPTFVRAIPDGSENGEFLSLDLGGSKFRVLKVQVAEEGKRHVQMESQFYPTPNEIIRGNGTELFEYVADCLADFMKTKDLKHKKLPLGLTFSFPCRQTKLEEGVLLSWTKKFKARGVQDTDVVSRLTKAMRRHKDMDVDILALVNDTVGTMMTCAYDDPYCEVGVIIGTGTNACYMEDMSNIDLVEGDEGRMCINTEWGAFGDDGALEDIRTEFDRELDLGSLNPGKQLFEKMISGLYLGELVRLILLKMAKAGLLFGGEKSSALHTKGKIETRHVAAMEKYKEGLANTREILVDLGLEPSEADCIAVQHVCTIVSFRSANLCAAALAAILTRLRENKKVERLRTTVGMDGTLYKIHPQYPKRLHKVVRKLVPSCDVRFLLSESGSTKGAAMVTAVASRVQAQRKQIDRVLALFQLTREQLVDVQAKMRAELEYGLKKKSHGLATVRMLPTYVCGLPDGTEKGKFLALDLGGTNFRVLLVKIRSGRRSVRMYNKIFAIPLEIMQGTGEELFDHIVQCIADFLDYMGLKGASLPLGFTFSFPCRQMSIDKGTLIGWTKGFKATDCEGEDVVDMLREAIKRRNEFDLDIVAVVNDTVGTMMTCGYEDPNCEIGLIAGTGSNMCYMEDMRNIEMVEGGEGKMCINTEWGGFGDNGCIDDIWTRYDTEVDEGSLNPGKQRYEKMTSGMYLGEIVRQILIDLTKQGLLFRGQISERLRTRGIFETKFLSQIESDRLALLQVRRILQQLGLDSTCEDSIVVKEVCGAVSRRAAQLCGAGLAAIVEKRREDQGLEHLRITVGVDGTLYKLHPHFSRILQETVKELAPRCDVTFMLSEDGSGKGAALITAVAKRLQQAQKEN

Chain of Beta-adrenergic receptor kinase 1 (P25098 whole entry): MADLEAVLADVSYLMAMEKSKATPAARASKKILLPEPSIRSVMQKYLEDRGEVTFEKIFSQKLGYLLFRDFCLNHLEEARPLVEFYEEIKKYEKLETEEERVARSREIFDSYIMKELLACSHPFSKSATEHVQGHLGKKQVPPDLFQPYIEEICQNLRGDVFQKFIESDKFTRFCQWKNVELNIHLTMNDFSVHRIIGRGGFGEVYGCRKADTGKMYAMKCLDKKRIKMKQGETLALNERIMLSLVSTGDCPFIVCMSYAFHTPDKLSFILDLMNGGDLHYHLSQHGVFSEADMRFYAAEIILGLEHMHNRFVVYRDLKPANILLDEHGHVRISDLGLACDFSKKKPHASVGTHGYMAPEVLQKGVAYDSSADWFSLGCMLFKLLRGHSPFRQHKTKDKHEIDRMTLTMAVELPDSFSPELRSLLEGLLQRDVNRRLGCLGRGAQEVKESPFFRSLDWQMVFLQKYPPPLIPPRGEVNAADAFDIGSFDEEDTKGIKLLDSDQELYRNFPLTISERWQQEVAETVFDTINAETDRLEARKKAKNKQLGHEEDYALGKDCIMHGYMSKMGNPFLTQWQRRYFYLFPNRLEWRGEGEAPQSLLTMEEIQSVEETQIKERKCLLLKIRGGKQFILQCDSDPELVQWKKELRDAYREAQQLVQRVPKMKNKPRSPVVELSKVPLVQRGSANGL

In the case of CCOC(=O)CC(NS(=O)(=O)c1ccc2ncc(C(=O)O)c(O)c2c1)c1ccc(OCC)c(OC)c1 (configuration not stated), the EC50 [1] is reported as 3.62 µM (active), the EC50 [2] is reported as > 260 µM (inactive) and the IC50 [3] is reported as 1.53 µM (active). For the same compound, the IC50 [4] was 46.3 µM (inactive) and the IC50 [5] was 3 µM (active).
In the case of CC(=O)N1CCN(c2ccc(N/C=C3\C(=O)NC(=O)N(Cc4ccccc4)C3=O)cc2)CC1, the EC50 [6] is reported as > 300 µM (not active), the EC50 [7] is reported as 83.1 µM (active) and the EC50 [8] is reported as > 99 µM (inactive). The EC50 [9] was 19 µM (active).
With Oc1cccc(C(Nc2nccs2)c2ccc3cccnc3c2O)c1 (configuration not stated) the EC50 [10] was 20.1 µM (inconclusive), the EC50 [11] was 9.83 µM (active) and the EC50 [12] was 13.2 µM (active). The EC50 [13] was 8.06 µM (active), the EC50 [14] was 0.796 µM (active) and the EC50 [15] was > 350 µM (not active). The EC50 [16] was > 180 µM (inactive), the EC50 [17] was 6.31 µM (active) and the EC50 [18] was 6.12 µM (active). The IC50 [19] was > 119 µM (inactive), the IC50 [20] was 107 µM (inactive) and the AC50 [21] was 14 µM (active). For the same compound, the AC50 [22] was 8.97 µM (active), the AC50 [23] was 0.95 µM (active) and the EC50 [24] was > 160 µM (inactive). For the same compound, the AC50 [25] was 1.67 µM (active), the AC50 [26] was 5.04 µM (active) and the AC50 [27] was 1.87 µM (active).
For O=C(c1ccccc1Cl)N1CCN(c2ccnc3cc(Cl)ccc23)CC1, the AC50 [28] was 7.36 µM (active), the AC50 [29] was 4.8 µM (active) and the AC50 [30] was 25.2 µM (active).
In the case of O=C(CSc1ncccn1)Nc1cccc(S(=O)(=O)N2CCOCC2)c1, the IC50 [31] is reported as > 80 µM (inactive) and the IC50 [32] is reported as > 80 µM (inactive).
